The record followed here is patent US11780893B2, “Kv1.3 blockers” (Zealand Pharma A/S, priority 2019, dated 2023).

pIC50: −log10 of the molar value. Like-named read-outs stand apart in the source and are kept apart here. Bridge positions count the residues as written; N and C are the ends. Square brackets hold non-standard residues; d marks the D form. Peptide text beside a SMILES is read from it. Aad = N[C@@H](CCCC(=O)O)C(=O)O; Nle = CCCC[C@H](N)C(=O)O Where only a bound is given, the exact number is not on record here.

The term pIC50 denotes the IC50 on a negative log10 scale, so that one unit is a factor of ten.

One experiment concerns the target Rat whole blood (Rattus norvegicus, UniProt P15384).
The target of experiment [1] is T1, human Kv1.3 voltage-gated K+ channel (Homo sapiens, UniProt P22001).
T1 construct: host or cells: CHO-DUKX
Nature of the experiment: cell-based. As to conditions: inhibition of thallium flux, CHO-DUKX cells with human Kv1.3; read-out: IC50.

Setting [2] is: inhibition of IL-17A release, thapsigargin, 24 Hr, at least 2 replicates.

Rat whole blood, sequence (P15384 whole entry): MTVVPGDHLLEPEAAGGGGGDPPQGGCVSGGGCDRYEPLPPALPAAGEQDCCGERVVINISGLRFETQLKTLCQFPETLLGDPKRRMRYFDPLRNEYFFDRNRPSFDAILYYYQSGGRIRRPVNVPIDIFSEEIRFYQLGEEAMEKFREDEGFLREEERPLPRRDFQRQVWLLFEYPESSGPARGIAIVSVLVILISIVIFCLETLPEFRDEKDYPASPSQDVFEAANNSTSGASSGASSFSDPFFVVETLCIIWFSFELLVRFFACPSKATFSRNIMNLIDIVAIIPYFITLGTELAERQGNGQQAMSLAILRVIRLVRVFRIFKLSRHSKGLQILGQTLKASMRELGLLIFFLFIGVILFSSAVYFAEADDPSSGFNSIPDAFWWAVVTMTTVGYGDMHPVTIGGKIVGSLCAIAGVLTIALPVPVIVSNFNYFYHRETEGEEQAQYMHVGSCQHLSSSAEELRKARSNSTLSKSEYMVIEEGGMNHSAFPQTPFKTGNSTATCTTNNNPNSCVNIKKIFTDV
T1 sequence (P22001 whole entry): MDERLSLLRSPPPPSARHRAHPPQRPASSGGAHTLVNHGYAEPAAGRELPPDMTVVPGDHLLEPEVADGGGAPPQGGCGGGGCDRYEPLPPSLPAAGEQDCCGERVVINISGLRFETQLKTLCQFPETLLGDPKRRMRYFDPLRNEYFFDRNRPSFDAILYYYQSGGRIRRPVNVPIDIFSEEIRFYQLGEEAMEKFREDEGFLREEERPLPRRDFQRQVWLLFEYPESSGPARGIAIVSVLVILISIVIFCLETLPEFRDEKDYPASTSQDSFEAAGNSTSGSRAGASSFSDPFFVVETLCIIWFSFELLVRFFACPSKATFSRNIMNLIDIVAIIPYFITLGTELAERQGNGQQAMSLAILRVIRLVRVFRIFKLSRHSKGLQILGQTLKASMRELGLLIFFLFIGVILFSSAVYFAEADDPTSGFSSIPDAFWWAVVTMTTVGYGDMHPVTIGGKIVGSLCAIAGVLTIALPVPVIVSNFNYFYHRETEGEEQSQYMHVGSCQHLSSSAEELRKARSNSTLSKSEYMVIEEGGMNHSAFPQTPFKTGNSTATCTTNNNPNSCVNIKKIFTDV

Take `CCCC[C@H](NC(=O)[C@H](CC(=O)O)NC(=O)[C@H](CCCC)NC(=O)[C@@H](N)CO)C(=O)N[C@@H](CCCNC(=N)N)C(=O)N[C@H]1CSSC[C@@H]2NC(=O)[C@H](CCCCN)NC(=O)CNC(=O)[C@H](Cc3ccccc3)NC(=O)[C@H]([C@@H](C)CC)NC(=O)[C@H](CO)NC(=O)CNC(=O)[C@H]([C@@H](C)CC)NC(=O)[C@H](C)NC(=O)[C@H](CCCCN)NC(=O)[C@H](CC(C)C)NC(=O)[C@@H]3CSSC[C@@H](C(=O)N[C@@H](Cc4ccc(O)cc4)C(=O)N[C@@H](CCC(N)=O)C(N)=O)NC(=O)[C@H](CCCCN)NC(=O)[C@H](CSSC[C@H](NC(=O)[C@H](CCC(=O)O)NC(=O)[C@H](C(C)C)NC(=O)[C@H](CO)NC(=O)[C@H](C)NC(=O)[C@H](CO)NC1=O)C(=O)N[C@@H](CCCCN)C(=O)N[C@@H](CCC(N)=O)C(=O)N[C@@H](CCCCN)C(=O)N3)NC(=O)[C@H](CCCCN)NC(=O)[C@H](CCCCN)NC(=O)[C@H](CC(N)=O)NC(=O)[C@H](CCSC)NC2=O` [Compound 74] (H-S[Nle]D[Nle]RCSASVECKQKCLKAIGSIFGKCMNKKCKCYQ-NH2; disulfide 6-27, 12-32, 16-34): the values for the pIC50 (at Rat whole blood (setting [2]); in experiment [1]) were 8.80 and 9.44, respectively.

As for `CCCC[C@H](NC(=O)[C@@H]1CCCN1)C(=O)N[C@@H](CCC(=O)O)C(=O)N[C@@H](CCCC)C(=O)N[C@@H](CCCNC(=N)N)C(=O)N[C@H]1CSSC[C@@H]2NC(=O)[C@H](CCCCN)NC(=O)CNC(=O)[C@H](Cc3ccccc3)NC(=O)[C@H]([C@@H](C)CC)NC(=O)[C@H](CO)NC(=O)CNC(=O)[C@H]([C@@H](C)CC)NC(=O)[C@H](C)NC(=O)[C@H](CC(C)C)NC(=O)[C@H](CC(C)C)NC(=O)[C@@H]3CSSC[C@@H](C(=O)N[C@@H](Cc4ccc(O)cc4)C(=O)N4CCC[C@H]4C(=O)N[C@@H](CCCNC(=N)N)C(=O)O)NC(=O)[C@H](CCCCN)NC(=O)[C@H](CSSC[C@H](NC(=O)[C@H](CCC(=O)O)NC(=O)[C@H](C(C)C)NC(=O)[C@H](CO)NC(=O)[C@H](C)NC(=O)[C@H](CO)NC1=O)C(=O)N[C@@H](CCCCN)C(=O)N[C@@H](CCC(N)=O)C(=O)N[C@@H](CCCCN)C(=O)N3)NC(=O)[C@H](CCCCN)NC(=O)[C@H](CCCCN)NC(=O)[C@H](CC(N)=O)NC(=O)[C@H](CCCC)NC2=O` [Compound 99] (H-P[Nle]E[Nle]RCSASVECKQKCLLAIGSIFGKC[Nle]NKKCKCYPR-OH; disulfide 6-27, 12-32, 16-34), the pIC50 at Rat whole blood is no less than 9.00; against Rat whole blood (setting [2]), 9.30; in experiment [1] it was 9.47.

On to `CCCC[C@@H]1NC(=O)[C@@H]2CSSC[C@H](NC(=O)[C@H](CCCNC(=N)N)NC(=O)[C@H](CCCC)NC(=O)[C@H](CC(=O)O)NC(=O)[C@H](CCCC)NC(=O)[C@@H](N)CO)C(=O)N[C@@H](CO)C(=O)N[C@@H](C)C(=O)N[C@@H](CO)C(=O)N[C@@H](C(C)C)C(=O)N[C@@H](CCC(=O)O)C(=O)N[C@H]3CSSC[C@H](NC(=O)[C@H](CCCCN)NC(=O)[C@H](CCCCN)NC(=O)[C@H](CC(N)=O)NC1=O)C(=O)N[C@@H](CCCCN)C(=O)N[C@H]1CSSC[C@H](NC(=O)[C@H](CCCCN)NC(=O)[C@H](CCC(N)=O)NC(=O)[C@H](CCCCN)NC3=O)C(=O)N[C@@H](CC(C)C)C(=O)N[C@@H](C)C(=O)N[C@@H](C)C(=O)N[C@@H]([C@@H](C)CC)C(=O)NCC(=O)N[C@@H](CSSC[C@@H](C(N)=O)NC(=O)[C@@H]3CCCN3C(=O)[C@H](Cc3ccc(O)cc3)NC1=O)C(=O)N[C@@H]([C@@H](C)CC)C(=O)N[C@@H](Cc1ccccc1)C(=O)NCC(=O)N[C@@H](CCCCN)C(=O)N2` [Compound 87] (H-S[Nle]D[Nle]RCSASVECKQKCLAAIGCIFGKC[Nle]NKKCKCYPC-NH2; disulfide 6-27, 12-32, 16-34, 22-37), for which the pIC50 is no less than 9.00 against Rat whole blood, 9.14 on Rat whole blood (setting [2]) and 10.00 in experiment [1].

In the case of `CC[C@H](C)[C@@H]1NC(=O)[C@H](C)NC(=O)[C@H](CCCCN)NC(=O)[C@H](CC(C)C)NC(=O)[C@@H]2CSSC[C@@H](C(=O)N[C@@H](Cc3ccc(O)cc3)C(=O)N3CCC[C@H]3C(=O)N[C@@H](CCCNC(=N)N)C(N)=O)NC(=O)[C@H](CCCCN)NC(=O)[C@@H]3CSSC[C@H](NC(=O)[C@H](CCC(=O)O)NC(=O)[C@H](C(C)C)NC(=O)[C@H](CO)NC(=O)[C@H](C)NC(=O)[C@H](CO)NC(=O)[C@@H](NC(=O)[C@H](CCCNC(=N)N)NC(=O)[C@H](CCSC)NC(=O)[C@H](CC(=O)O)NC(=O)[C@H](CCSC)NC(=O)[C@@H](N)CC(N)=O)CSSC[C@H](NC(=O)[C@H](CCCCN)NC(=O)CNC(=O)[C@H](Cc4ccccc4)NC(=O)[C@H]([C@@H](C)CC)NC(=O)[C@H](CO)NC(=O)[C@H](Cc4c[nH]cn4)NC1=O)C(=O)N[C@@H](CCSC)C(=O)N[C@@H](CC(N)=O)C(=O)N[C@@H](CCCCN)C(=O)N[C@@H](CCCCN)C(=O)N3)C(=O)N[C@@H](CCCCN)C(=O)N[C@@H](CCC(N)=O)C(=O)N[C@@H](CCCCN)C(=O)N2` [Compound 33] (H-NMDMRCSASVECKQKCLKAIHSIFGKCMNKKCKCYPR-NH2; disulfide 6-27, 12-32, 16-34), the pIC50 against Rat whole blood is no less than 9.00; on Rat whole blood (setting [2]), 9.15; in experiment [1], 9.85.

`CC[C@H](C)[C@@H]1NC(=O)[C@H](C)NC(=O)[C@H](C)NC(=O)[C@H](CC(C)C)NC(=O)[C@@H]2CSSC[C@@H](C(=O)N[C@@H](Cc3ccc(O)cc3)C(=O)N3CCC[C@H]3C(=O)N[C@@H](CCCNC(=N)N)C(=O)O)NC(=O)[C@H](CCCCN)NC(=O)[C@@H]3CSSC[C@H](NC(=O)[C@H](CCC(=O)O)NC(=O)[C@H](C(C)C)NC(=O)[C@H](CO)NC(=O)[C@H](C)NC(=O)[C@H](CO)NC(=O)[C@@H](NC(=O)[C@H](CCCNC(=N)N)NC(=O)[C@H](CC(C)C)NC(C)=O)CSSC[C@H](NC(=O)[C@H](CCCCN)NC(=O)CNC(=O)[C@H](Cc4ccccc4)NC(=O)[C@H]([C@@H](C)CC)NC(=O)[C@H](CO)NC(=O)CNC1=O)C(=O)N[C@@H](CCSC)C(=O)N[C@@H](CC(N)=O)C(=O)N[C@@H](CCCCN)C(=O)N[C@@H](CCCCN)C(=O)N3)C(=O)N[C@@H](CCCCN)C(=O)N[C@@H](CCC(N)=O)C(=O)N[C@@H](CCCCN)C(=O)N2` [Compound 116] (Ac-LRCSASVECKQKCLAAIGSIFGKCMNKKCKCYPR-OH; disulfide 3-24, 9-29, 13-31): the pIC50 on Rat whole blood is no less than 9.00; on Rat whole blood (setting [2]), 9.44; in experiment [1] it was 9.74.

Turning to `CCCC[C@H](NC(=O)[C@H](CC(=O)O)NC(=O)[C@H](CCCC)NC(=O)[C@@H](N)CO)C(=O)N[C@@H](CCCNC(=N)N)C(=O)N[C@H]1CSSC[C@@H]2NC(=O)[C@H](CCCCN)NC(=O)CNC(=O)[C@H](Cc3ccccc3)NC(=O)[C@H]([C@@H](C)CC)NC(=O)[C@H](CO)NC(=O)CNC(=O)[C@H]([C@@H](C)CC)NC(=O)[C@H](C)NC(=O)[C@H](C(C)C)NC(=O)[C@H](CC(C)C)NC(=O)[C@@H]3CSSC[C@@H](C(=O)N[C@@H](Cc4ccc(O)cc4)C(=O)N4CCC[C@H]4C(=O)N[C@@H](CCCNC(=N)N)C(N)=O)NC(=O)[C@H](CCCCN)NC(=O)[C@H](CSSC[C@H](NC(=O)[C@H](CCC(=O)O)NC(=O)[C@H](C(C)C)NC(=O)[C@H](CO)NC(=O)[C@H](C)NC(=O)[C@H](CO)NC1=O)C(=O)N[C@@H](CCCCN)C(=O)N[C@@H](CCC(N)=O)C(=O)N[C@@H](CCCCN)C(=O)N3)NC(=O)[C@H](CCCCN)NC(=O)[C@H](CCCCN)NC(=O)[C@H](CC(N)=O)NC(=O)[C@H](CCSC)NC2=O` [Compound 78] (H-S[Nle]D[Nle]RCSASVECKQKCLVAIGSIFGKCMNKKCKCYPR-NH2; disulfide 6-27, 12-32, 16-34), the pIC50 is no less than 9.00 at Rat whole blood, 9.41 against Rat whole blood (setting [2]) and 9.92 in experiment [1].

On to `CCCC[C@H](NC(=O)[C@@H]1CCCN1)C(=O)N[C@@H](CC(=O)O)C(=O)N[C@@H](CCCC)C(=O)N[C@@H](CCCNC(=N)N)C(=O)N[C@H]1CSSC[C@@H]2NC(=O)[C@H](CCCCN)NC(=O)CNC(=O)[C@H](Cc3ccccc3)NC(=O)[C@H]([C@@H](C)CC)NC(=O)[C@H](CO)NC(=O)CNC(=O)[C@H]([C@@H](C)CC)NC(=O)[C@H](C)NC(=O)[C@H](CCCC(N)=O)NC(=O)[C@H](CC(C)C)NC(=O)[C@@H]3CSSC[C@@H](C(=O)N[C@@H](Cc4ccc(O)cc4)C(=O)N4CCC[C@H]4C(=O)N[C@@H](CCCNC(=N)N)C(N)=O)NC(=O)[C@H](CCCCN)NC(=O)[C@H](CSSC[C@H](NC(=O)[C@H](CCC(=O)O)NC(=O)[C@H](C(C)C)NC(=O)[C@H](CO)NC(=O)[C@H](C)NC(=O)[C@H](CO)NC1=O)C(=O)N[C@@H](CCCCN)C(=O)N[C@@H](CCC(=O)O)C(=O)N[C@@H](CCCCN)C(=O)N3)NC(=O)[C@H](CCCCN)NC(=O)[C@H](CCCCN)NC(=O)[C@H](CC(N)=O)NC(=O)[C@H](CCCC)NC2=O` [Compound 85] (H-P[Nle]D[Nle]RCSASVECKEKCL[Aad](NH2)AIGSIFGKC[Nle]NKKCKCYPR-NH2; disulfide 6-27, 12-32, 16-34), for which the pIC50 is 8.85 against Rat whole blood (setting [2]) and 9.82 in experiment [1].

On to `CC[C@H](C)[C@@H]1NC(=O)[C@H](C)NC(=O)[C@H](CCCCN)NC(=O)[C@H](CC(C)C)NC(=O)[C@@H]2CSSC[C@@H](C(=O)N[C@@H](Cc3ccc(O)cc3)C(=O)N3CCC[C@H]3C(=O)N[C@@H](CCCNC(=N)N)C(N)=O)NC(=O)[C@H](C(C)C)NC(=O)[C@@H]3CSSC[C@H](NC(=O)[C@H](CCC(=O)O)NC(=O)[C@H](C(C)C)NC(=O)[C@H](CO)NC(=O)[C@H](C)NC(=O)[C@H](CO)NC(=O)[C@@H](NC(=O)[C@H](CCCNC(=N)N)NC(=O)[C@H](CCSC)NC(=O)[C@H](CC(=O)O)NC(=O)[C@H](CCSC)NC(=O)[C@@H](N)CC(N)=O)CSSC[C@H](NC(=O)[C@H](CCCCN)NC(=O)CNC(=O)[C@H](Cc4ccccc4)NC(=O)[C@H]([C@@H](C)CC)NC(=O)[C@H](CO)NC(=O)CNC1=O)C(=O)N[C@@H](CCSC)C(=O)N[C@@H](CC(N)=O)C(=O)N[C@@H](CCCCN)C(=O)N[C@@H](CCCCN)C(=O)N3)C(=O)N[C@@H](CCCCN)C(=O)N[C@@H](CCC(N)=O)C(=O)N[C@@H](CCCCN)C(=O)N2` [Compound 38] (H-NMDMRCSASVECKQKCLKAIGSIFGKCMNKKCVCYPR-NH2; disulfide 6-27, 12-32, 16-34), for which the pIC50 is 8.55 against Rat whole blood (setting [2]) and 9.34 in experiment [1].
